Consider 5 molecules from patent US9921215B2, “Method for detecting ligand using FRET biosensor” (KOREA RESEARCH INSTITUTE OF BIOSCIENCE AND BIOTECHNOLOGY, priority 2009, dated 2018).

Series [1] concerns the target T1, CmglBY-SS glucose FRET biosensor: fusion protein ECFP-GGBP-EYFP of E. coli MG1655 GGBP (galactose/glucose-binding protein) (Escherichia coli, UniProt P0AEE5). Put plainly: Specificity of the glucose FRET biosensor for various sugars. Conditions: critical temperature 50 °C; ligand 100 μM, 1 mM, 10 mM. The protocol: (§1) Analysis of the specificities of the FRET biosensors for various ligands was performed using 19 kinds of sugars, including monosaccharides, polyscaccharides and sugar alcohols.
(§2) To measure the specificities of the sensors, each of the purified FRET biosensors was added to 0.5 ml of PBS buffer (pH 7.4) at a concentration of 0.5 μM such that the concentration of each ligand reached 100 μM, 1 mM, 10 mM, etc. In 3 minutes after the peltier device surrounding the cuvette has reached each of the critical temperatures determined in Example 3, fluorescence was measured.
Target sequence in this assay (P0AEE5 24-332 limits assumed): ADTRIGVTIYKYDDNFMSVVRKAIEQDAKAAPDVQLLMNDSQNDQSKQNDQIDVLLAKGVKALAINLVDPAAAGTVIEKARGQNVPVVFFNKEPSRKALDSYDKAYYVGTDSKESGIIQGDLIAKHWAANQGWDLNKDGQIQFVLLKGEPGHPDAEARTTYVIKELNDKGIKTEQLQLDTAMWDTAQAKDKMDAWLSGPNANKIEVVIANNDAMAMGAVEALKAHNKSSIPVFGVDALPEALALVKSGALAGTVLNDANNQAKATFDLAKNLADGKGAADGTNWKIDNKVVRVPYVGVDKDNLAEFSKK

Series [2] concerns the target T2, CaraFY-PR arabinose FRET biosensor: fusion protein ECFP-ARBP-EYFP of E. coli MG1655 ARBP (arabinose-binding protein) (Escherichia coli, UniProt P02924). The series is described as follows: Specificity of the arabinose FRET biosensor for various sugars. The following applies: critical temperature 49 °C; ligand 100 μM, 1 mM, 10 mM. How it is done:
as §1, §2

In series [3] the target is T2, CaraFY-PR arabinose FRET biosensor: fusion protein ECFP-ARBP-EYFP of E. coli MG1655 ARBP (arabinose-binding protein). Put plainly: Ligand titration of FRET biosensor CaraFY-PR (arabinose sensor) at its critical temperature. The arrangement: 6xHis (C); made in house; host or cells: E. coli. The text has this: Likewise, in order to construct an expression vector of CaraFY-PR, a biosensor for measuring arabinose, ECFP gene was amplified by PCR using primers of SEQ ID NOs: 3 and 10, and ARBP gene was amplified by PCR using a chromosomal DNA, extracted from E. coli MG1655, as a template, and primers of SEQ ID NOs: 11 and 12.
The amplified ECFP and ARBP genes were amplified by PCR using primers of SEQ ID NOs: 3 and 12, thus obtaining a synthetic gene of ECFP-ARBP. The ECFP-ARBP gene was inserted into the ECFP-MBP gene position of the pECMY-BII expression vector, thereby constructing a pECaraFY-PR vector.
(§3) The fluorescence of the FRET biosensors was measured using the fluorescence analysis system Cary Eclipse (Varian Inc., Mulgrave, Australia) under the conditions in which the proteins of each biosensor were controlled to the same concentration of 0.5 μM in 0.5 ml of PBS buffer (pH 7.4). […]
(§4) Also, Δratio that defines the detection capability of the FRET biosensor was determined according to the following equation 4: Δratio=ratiomax−ratiomin [Equation 4]
(§5) The titration curves of the FRET biosensors were expressed as Sigmoidal curves using the 4-parameter Hill equation of Sigmaplot 10.0 (Systat software Inc., USA) based on changes in the ratio measured while increasing the ligand concentration from 1 nM to 10 mM. […]
Target sequence in this assay (P02924 other isoform, or with tags, fused parts or gaps): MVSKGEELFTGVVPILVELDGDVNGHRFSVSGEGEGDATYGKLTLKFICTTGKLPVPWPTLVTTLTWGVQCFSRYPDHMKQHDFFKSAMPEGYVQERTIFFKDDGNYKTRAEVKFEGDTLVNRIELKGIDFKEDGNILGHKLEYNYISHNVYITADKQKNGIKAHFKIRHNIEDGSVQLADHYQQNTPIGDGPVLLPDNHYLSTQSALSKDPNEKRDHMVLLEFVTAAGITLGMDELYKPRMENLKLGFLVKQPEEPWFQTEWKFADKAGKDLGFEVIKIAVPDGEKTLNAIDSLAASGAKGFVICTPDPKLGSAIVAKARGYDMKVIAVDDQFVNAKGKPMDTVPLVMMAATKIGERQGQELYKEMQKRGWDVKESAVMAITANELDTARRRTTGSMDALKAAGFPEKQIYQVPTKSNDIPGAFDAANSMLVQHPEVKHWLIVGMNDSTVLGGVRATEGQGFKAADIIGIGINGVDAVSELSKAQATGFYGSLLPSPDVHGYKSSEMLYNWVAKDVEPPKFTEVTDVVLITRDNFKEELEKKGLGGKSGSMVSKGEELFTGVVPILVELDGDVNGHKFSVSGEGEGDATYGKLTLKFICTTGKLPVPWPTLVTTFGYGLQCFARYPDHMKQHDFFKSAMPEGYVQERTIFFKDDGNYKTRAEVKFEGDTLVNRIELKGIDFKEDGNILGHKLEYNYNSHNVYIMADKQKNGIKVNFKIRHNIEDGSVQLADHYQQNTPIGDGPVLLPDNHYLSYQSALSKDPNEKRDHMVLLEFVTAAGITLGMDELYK

The target of series [4] is CalsBY-QV allose FRET biosensor: fusion protein ECFP-ALBP-EYFP of E. coli MG1655 ALBP (allose-binding protein) (Escherichia coli, UniProt P39265). The series is described as follows: Specificity of the allose FRET biosensor for various sugars. The following applies: critical temperature 49 °C; ligand 100 μM, 1 mM, 10 mM; ribose compared with measurement at 25 °C in U.S. Pat. No. 7,432,353. How it is done:
as §1, §2

In series [5] the target is T1, CmglBY-SS glucose FRET biosensor: fusion protein ECFP-GGBP-EYFP of E. coli MG1655 GGBP (galactose/glucose-binding protein). The series is described as follows: Ligand titration of FRET biosensor CmglBY-SS (glucose sensor) at its critical temperature. On the set-up: 6xHis (C); made in house; host or cells: E. coli.
Description: In addition, an expression vector of CmglBY-SS, a biosensor for measuring glucose used in the present invention, was constructed in the following manner.
First, ECFP gene was amplified by PCR using a pECFP vector as a template and a forward primer of SEQ ID NO: 3 together with a reverse primer of SEQ ID NO: 13 prepared to overlap with the nucleotide sequence of the N-terminus of GGBP. Likewise, GGBP gene was amplified by PCR using a chromosomal DNA, extracted from E. coli MG1655, as a template, and a forward primer of SEQ ID NO: 14 together with a reverse primer of SEQ ID NO: 15 containing a BamHI restriction sequence. […]
as §3, §4, §5
Target sequence in this assay (P0AEE5 24-332 with tags or gaps limits assumed): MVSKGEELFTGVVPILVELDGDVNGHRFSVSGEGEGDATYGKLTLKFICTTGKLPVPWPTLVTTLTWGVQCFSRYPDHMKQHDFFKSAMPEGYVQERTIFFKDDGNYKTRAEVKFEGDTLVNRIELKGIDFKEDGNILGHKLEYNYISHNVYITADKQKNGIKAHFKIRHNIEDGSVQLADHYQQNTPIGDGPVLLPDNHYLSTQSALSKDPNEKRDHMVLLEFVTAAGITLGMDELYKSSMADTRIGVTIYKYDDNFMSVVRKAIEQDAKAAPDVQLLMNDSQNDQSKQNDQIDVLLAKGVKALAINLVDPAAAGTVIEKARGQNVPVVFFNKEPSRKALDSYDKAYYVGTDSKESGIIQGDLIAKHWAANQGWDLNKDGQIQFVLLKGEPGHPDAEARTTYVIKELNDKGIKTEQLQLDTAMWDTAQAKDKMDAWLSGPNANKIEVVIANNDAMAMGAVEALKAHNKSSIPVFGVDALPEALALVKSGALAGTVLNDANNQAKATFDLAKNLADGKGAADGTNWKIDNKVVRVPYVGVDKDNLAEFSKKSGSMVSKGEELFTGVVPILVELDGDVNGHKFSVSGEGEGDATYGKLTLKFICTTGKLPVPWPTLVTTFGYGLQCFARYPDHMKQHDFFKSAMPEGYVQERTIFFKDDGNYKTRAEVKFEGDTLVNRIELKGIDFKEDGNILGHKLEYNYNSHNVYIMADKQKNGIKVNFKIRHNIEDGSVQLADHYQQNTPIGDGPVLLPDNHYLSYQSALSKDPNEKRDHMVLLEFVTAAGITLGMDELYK

The conditions of series [6]: cited from earlier work.

Chain of CalsBY-QV allose FRET biosensor: fusion protein ECFP-ALBP-EYFP of E. coli MG1655 ALBP (allose-binding protein) (P39265 24-311): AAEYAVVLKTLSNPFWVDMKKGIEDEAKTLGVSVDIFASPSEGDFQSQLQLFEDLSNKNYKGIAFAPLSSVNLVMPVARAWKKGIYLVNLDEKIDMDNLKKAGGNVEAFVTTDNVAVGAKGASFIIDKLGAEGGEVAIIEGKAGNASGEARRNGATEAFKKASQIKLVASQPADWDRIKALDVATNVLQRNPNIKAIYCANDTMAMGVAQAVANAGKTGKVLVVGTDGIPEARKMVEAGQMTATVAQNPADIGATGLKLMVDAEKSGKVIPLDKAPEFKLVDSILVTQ

For the molecule `OC[C@H]1OC(O)[C@H](O)[C@@H](O)[C@H]1O` (stereo partly shown) [galactose], the affinity result in series [1] and in series [2] was “very high affinity” each time.

The molecule `OC1OC[C@H](O)[C@H](O)[C@H]1O` (stereo partly shown) [arabinose] had a Kd in series [3] of 67 ± 4 µM.

For `OC1OC[C@@H](O)[C@@H](O)[C@H]1O` (stereo partly shown) [ribose], the “specificity for other sugars” value in series [4] is given as “reduced specificity”.

In series [5], `OC[C@H]1OC(O)[C@H](O)[C@@H](O)[C@@H]1O` (stereo partly shown) [glucose] had a Kd of 9.2 ± 0.5 µM.

B1: ARBP: E. coli periplasmic arabinose-binding protein (protein, UniProt P02924 24-329, looked up)
L-arabinose-binding …: ENLKLGFLVKQPEEPWFQTEWKFADKAGKDLGFEVIKIAVPDGEKTLNAIDSLAASGAKGFVICTPDPKLGSAIVAKARGYDMKVIAVDDQFVNAKGKPMDTVPLVMMAATKIGERQGQELYKEMQKRGWDVKESAVMAITANELDTARRRTTGSMDALKAAGFPEKQIYQVPTKSNDIPGAFDAANSMLVQHPEVKHWLIVGMNDSTVLGGVRATEGQGFKAADIIGIGINGVDAVSELSKAQATGFYGSLLPSPDVHGYKSSEMLYNWVAKDVEPPKFTEVTDVVLITRDNFKEELEKKGLGGK
Take B1: the “Unfolding temperature in the presence of ligand” value in series [6] (1 mM arabinose (ARBP) / glucose (GGBP)) was 59 °C. In series [6] (no arabinose (ARBP) / no glucose (GGBP)), the “Unfolding temperature in the absence of ligand” value was 53.5 °C.

One may read the Kd as the free concentration of one partner at which half of the binding sites on the other are occupied at equilibrium, for simple one-to-one binding.
